From the NIST ThermoML archive (doi:10.1016/j.jct.2015.02.008)

What was measured:
[1] = for molar entropy: 101.33 kPa, Vacuum adiabatic calorimetry
[2] = Molar enthalpy of transition or fusion; conditions: Crystal; Adiabatic calorimetry
[3] = molar heat capacity at saturation pressure; conditions: Vacuum adiabatic calorimetry

Oc1cccc2ccccc12 [1-naphthol]
Conditions	Triple point temperature [K]	molar entropy [J/K/mol]	molar heat capacity [J/K/mol]
[1], 5 K, Crystal	–	0.1164	–
[1], 10 K, Crystal	–	1.006	–
[1], 20 K, Crystal	–	5.712	–
[1], 30 K, Crystal	–	12.49	–
[1], 40 K, Crystal	–	19.88	–
[1], 50 K, Crystal	–	27.32	–
[1], 60 K, Crystal	–	34.57	–
[1], 70 K, Crystal	–	41.6	–
[1], 80 K, Crystal	–	48.37	–
[1], 90 K, Crystal	–	54.94	–
[1], 100 K, Crystal	–	61.3	–
[1], 120 K, Crystal	–	73.57	–
[1], 140 K, Crystal	–	85.45	–
[1], 160 K, Crystal	–	97.07	–
[1], 180 K, Crystal	–	108.59	–
[1], 200 K, Crystal	–	120.05	–
[1], 220 K, Crystal	–	131.53	–
[1], 240 K, Crystal	–	143.02	–
[1], 260 K, Crystal	–	154.55	–
[1], 280 K, Crystal	–	166.13	–
[1], 298.15 K, Crystal	–	176.67	–
[1], 300 K, Crystal	–	177.75	–
[1], 320 K, Crystal	–	189.4	–
[1], 340 K, Crystal	–	201.04	–
[1], 360 K, Crystal	–	212.69	–
[1], 368.49 K, Crystal	–	217.66	–
[1], 368.49 K, Liquid	–	283.48	–
[1], 380 K, Liquid	–	292.12	–
[1], 400 K, Liquid	–	306.76	–
[1], 420 K, Liquid	–	320.97	–
[1], 440 K, Liquid	–	334.8	–
[1], Crystal, Adiabatic calorimetry	368.49	–	–
[3], 4.908 K, Crystal	–	–	0.3991
[3], 5 K, Crystal	–	–	0.4074
[3], 5.887 K, Crystal	–	–	0.6735
[3], 6.773 K, Crystal	–	–	0.9894
[3], 7.696 K, Crystal	–	–	1.413
[3], 8.736 K, Crystal	–	–	1.995
[3], 9.852 K, Crystal	–	–	2.752
[3], 10 K, Crystal	–	–	2.86
[3], 11.02 K, Crystal	–	–	3.658
[3], 12.26 K, Crystal	–	–	4.664
[3], 13.57 K, Crystal	–	–	5.837
[3], 14.97 K, Crystal	–	–	7.2
[3], 16.55 K, Crystal	–	–	8.755
[3], 18.3 K, Crystal	–	–	10.52
[3], 20 K, Crystal	–	–	12.18
[3], 20.23 K, Crystal	–	–	12.41
[3], 22.38 K, Crystal	–	–	14.54
[3], 24.77 K, Crystal	–	–	16.86
[3], 27.44 K, Crystal	–	–	19.4
[3], 30 K, Crystal	–	–	21.7
[3], 30.38 K, Crystal	–	–	22.03
[3], 33.63 K, Crystal	–	–	24.81
[3], 37.26 K, Crystal	–	–	27.77
[3], 40 K, Crystal	–	–	29.84
[3], 41.28 K, Crystal	–	–	30.77
[3], 45.76 K, Crystal	–	–	34.06
[3], 50 K, Crystal	–	–	36.83
[3], 50.77 K, Crystal	–	–	37.31
[3], 51.97 K, Crystal	–	–	38.07
[3], 56.32 K, Crystal	–	–	40.7
[3], 56.46 K, Crystal	–	–	40.78
[3], 60 K, Crystal	–	–	42.91
[3], 61.85 K, Crystal	–	–	43.99
[3], 68.38 K, Crystal	–	–	47.41
[3], 70 K, Crystal	–	–	48.25
[3], 75.62 K, Crystal	–	–	51.08
[3], 80 K, Crystal	–	–	53.33
[3], 83.14 K, Crystal	–	–	54.91
[3], 90 K, Crystal	–	–	58.16
[3], 91.41 K, Crystal	–	–	58.81
[3], 100 K, Crystal	–	–	62.77
[3], 100.48 K, Crystal	–	–	62.99
[3], 110.08 K, Crystal	–	–	67.46
[3], 119.95 K, Crystal	–	–	72.21
[3], 120 K, Crystal	–	–	72.23
[3], 130.14 K, Crystal	–	–	77.14
[3], 140 K, Crystal	–	–	82.08
[3], 140.31 K, Crystal	–	–	82.24
[3], 150.42 K, Crystal	–	–	87.34
[3], 160 K, Crystal	–	–	92.43
[3], 160.43 K, Crystal	–	–	92.66
[3], 170.36 K, Crystal	–	–	98.04
[3], 180 K, Crystal	–	–	103.34
[3], 180.29 K, Crystal	–	–	103.5
[3], 190.33 K, Crystal	–	–	109.13
[3], 200 K, Crystal	–	–	114.64
[3], 200.45 K, Crystal	–	–	114.9
[3], 210.56 K, Crystal	–	–	120.76
[3], 220 K, Crystal	–	–	126.26
[3], 220.64 K, Crystal	–	–	126.63
[3], 230.69 K, Crystal	–	–	132.62
[3], 240 K, Crystal	–	–	138.13
[3], 240.71 K, Crystal	–	–	138.54
[3], 250.73 K, Crystal	–	–	144.61
[3], 260 K, Crystal	–	–	150.24
[3], 260.74 K, Crystal	–	–	150.69
[3], 270.62 K, Crystal	–	–	156.67
[3], 280 K, Crystal	–	–	162.4
[3], 280.51 K, Crystal	–	–	162.71
[3], 290.52 K, Crystal	–	–	168.83
[3], 298.15 K, Crystal	–	–	173.51
[3], 300 K, Crystal	–	–	174.64
[3], 300.53 K, Crystal	–	–	174.97
[3], 310.57 K, Crystal	–	–	180.81
[3], 320 K, Crystal	–	–	186.29
[3], 320.58 K, Crystal	–	–	186.63
[3], 331.02 K, Crystal	–	–	192.65
[3], 340 K, Crystal	–	–	197.95
[3], 341.47 K, Crystal	–	–	198.62
[3], 351.79 K, Crystal	–	–	205.33
[3], 360 K, Crystal	–	–	210.16
[3], 360.7 K, Crystal	–	–	210.52
[3], 368.49 K, Crystal	–	–	215.56
[3], 368.49 K, Liquid	–	–	279.12
[3], 375.44 K, Liquid	–	–	281.15
[3], 375.53 K, Liquid	–	–	281.2
[3], 380 K, Liquid	–	–	282.47
[3], 382.75 K, Liquid	–	–	283.25
[3], 389.88 K, Liquid	–	–	285.37
[3], 400 K, Liquid	–	–	288.35
[3], 405.81 K, Liquid	–	–	290.05
[3], 420 K, Liquid	–	–	294.27
[3], 423.59 K, Liquid	–	–	295.34
[3], 438.9 K, Liquid	–	–	299.86
[3], 440 K, Liquid	–	–	300.19

[1], Liquid
Conditions	mass density [kg/m3]	vapor or sublimation pressure [kPa]
369.98 K, Inclined piston gauge	–	0.1033
373.12 K, Inclined piston gauge	–	0.1259
374.97 K, Inclined piston gauge	–	0.1406
383.13 K, Inclined piston gauge	–	0.2221
384.98 K, Inclined piston gauge	–	0.2455
393 K, Pycnometric method	1063	–
393.13 K, Inclined piston gauge	–	0.3779
394.98 K, Inclined piston gauge	–	0.4163
403.12 K, Inclined piston gauge	–	0.6229
404.96 K, Inclined piston gauge	–	0.6815
408.13 K, Inclined piston gauge	–	0.7902
413.12 K, Inclined piston gauge	–	0.9955
414.97 K, Inclined piston gauge	–	1.085
418.12 K, Inclined piston gauge	–	1.249
423.12 K, Inclined piston gauge	–	1.551
424.96 K, Inclined piston gauge	–	1.68
429.2 K, Twin ebulliometer	–	2
429.96 K, Inclined piston gauge	–	2.071
434.97 K, Inclined piston gauge	–	2.537
436.27 K, Twin ebulliometer	–	2.666
439.96 K, Inclined piston gauge	–	3.091
446.77 K, Twin ebulliometer	–	4
454.6 K, Twin ebulliometer	–	5.333
466.26 K, Twin ebulliometer	–	7.999
475.01 K, Twin ebulliometer	–	10.67
482.08 K, Twin ebulliometer	–	13.33
489.42 K, Twin ebulliometer	–	16.66
495.53 K, Twin ebulliometer	–	19.93
503.55 K, Twin ebulliometer	–	25.02
511.63 K, Twin ebulliometer	–	31.17
519.75 K, Twin ebulliometer	–	38.56
527.93 K, Twin ebulliometer	–	47.37
536.16 K, Twin ebulliometer	–	57.81
544.44 K, Twin ebulliometer	–	70.11
552.77 K, Twin ebulliometer	–	84.53
561.14 K, Twin ebulliometer	–	101.32
569.59 K, Twin ebulliometer	–	120.78

Conditions	Molar enthalpy of transition or fusion [kcal/mol]
[2]	5.798
